Source: patent US20050148034A1, “Methods for identification of modulators of angiogenesis, compounds discovered thereby, and methods of treatment using the compounds” (priority 2002, published 2005)

Columns and labels:
[1] = test system: embryonic-like stem cells derived from placenta; test: Marker expression of cultured embryonic-like stem cells (staining score, Table 2); type: cell-based, human; set-up: key to SMC-specific Myosin HC / GFAP / CD34+ / CD45+: −: no staining; +/−: <20% staining; +: 20-50% staining; ++: 50-75% staining; +++: >75% staining; conditions: for CD34+ / CD45+ / GFAP / Nestin / SMC-specific Myosin HC: placental conditioned media, fourteen days of culture
Protocol: The following experiments evaluated the effects of Thalomid™, Actimid™ and Revimid™ on the morphological differentiation of embryonic-like stem cells derived from placenta. The morphological differentiation of cultured embryonic-like stem cells was evaluated after fourteen days of culture in the presence of placental conditioned medium and with DMSO (control), EGCF, Thalomid™, Actimid™ or Revimid™.
(§1) Embryonic-like stem cells were isolated from placenta as described above in Section 5.4. The embryonic-like stem cells were cultured using the culture conditions described above.
(§2) The cells were scored for the expression of CD34 (a marker of early hematopoietic progenitor cells; also an endothelial cell marker), CD45 (a marker of all hematopoietic cells except erythrocytes), CD105 (a marker of proliferating endothelial cells), smooth muscle cell (SMC)-specific myosin heavy chain, nestin ([…]), and glial fibrillary acidic protein (GFAP). Ratios of CD34 cells/TNC (Total Number of Cells), CD45 cells/TNC and CD105 cells/TNC were also determined.
In Table 2, the scoring was as follows: • −: no staining; +/−: <20% staining+: 20-50% staining; ++: 50-75% staining; +++: >75% staining.

[2] = test system: embryonic-like stem cells derived from placenta; test: Total vessel area/field and branching/bifurcation of cultured placental embryonic-like stem cells (Table 4); type: cell-based, human; set-up: key to Branching/Bifurcation (+/−): +: a branch or bifurcation was observed; −: no branch or bifurcation was observed
Protocol: In another experiment, the results of which are summarized in Table 4, embryonic-like stem cells derived from placenta were cultured, using the culture conditions described above, and in the presence of EGCF, DMSO, Thalomid™, Actimid™ or Revimid™.
A “+” means that a branch or bifurcation was observed and a “−” means that no branch or bifurcation was observed. […] See also FIGS. 3A, 3B

[3] = test system: umbilical vessel explant / cultured cells; test: Umbilical vessel ring assays, photomicrographs of cultured cells (FIGS. 1-3); type: cell-based, human
Protocol: FIGS. 1(A-D). Photomicrographs of cultured cells in umbilical vessel ring assays as described in Section 6.2. A. Positive control. The explant was cultured in media+EGCF 200 μg/ml. […] B. Negative control. The explant was cultured in placental conditioned media+supplement. In the absence of EGCF, fewer cells migrated from the explant than in the positive control (A). C. Treatment Group 3. The explant was cultured in placental conditioned media+EGCF 200 μg/ml+Thalomid™ 100 μg/ml. […] D. Treatment Group 2. The explant was cultured in placental conditioned media+EGCF 200 μg/ml+Thalomid™ 10 μg/ml.
FIGS. 2(A-C). Photomicrographs of cultured cells in umbilical vessel ring assays as described in Section 6.2. A. Control. Cells were cultured in placental conditioned media+ECGF 200 μg/ml+DMSO 1 μg/ml. B. Cells were cultured in placental conditioned media+ECGF 200 μg/ml+DMSO 1 μg/ml+Thalomid™ 1 μg/ml. […]. Cells were cultured in placental conditioned media+ECGF 200 μg/ml+DMSO 1 μg/ml+Thalomid™ 10 μg/ml.
FIGS. 3(A-B). Photomicrographs of cultured cells in umbilical vessel ring assays as described in Section 6. A. Control. Cells were cultured in placental conditioned media+DMSO. […] B. Cells were cultured in placental conditioned media+DMSO+Thalomid™.
as §1

[4] = test system: embryonic-like stem cells derived from placenta; test: Immunostaining for CD34, CD45 and CD105 in cultured placental stem cells (ratios to TNC, Table 3); type: cell-based, human; conditions: for CD34/TNC / CD45/TNC / CD105/TNC: placental conditioned media, 14 days in culture
Protocol: as §2
In another experiment, the results of which are summarized in Table 3, embryonic-like stem cells derived from placenta were cultured, using the conditions described in the umbilical vessel ring assay described above, in the presence of placenta-conditioned medium with DMSO (negative control), Thalomid™, Actimid™ or Revimid™. After 14 days in culture, the cells were then immunostained for expression of CD34+, CD45+ and CD 105+.

[5] = test system: human umbilical cord vessel rings; test: Human angiogenesis assay (umbilical artery vessel rings in Matrigel); type: cell-based; conditions: for Microvessel Growth (% Inhibition): vs 0.1% DMSO, three weeks, average of two rings
From the text: Fresh human umbilical cords were collected by trained medical personnel under fill donor informed consent from local hospitals. The cords were transported and treated within three hours. Umbilical cords and vessel lumens were rinsed with chilled basal nutrient medium. The artery was removed from the cord using mechanical means, forceps and small surgical scissors in an aseptic field. The vessel was cleaned of connective tissue and vessel rings were cut cross-wise in a length of 1 mm. The rings were placed into EGM-2 medium (Clonetics Corp.) in a 50 ml conical bottom tube and stored at 4° C. Six-well tissue culture plates were covered with […] of Matrigel and allowed to gel for 30-45 min at 37° C., under 5% CO2. The vessel rings were rinsed in EGM-2 medium and placed on the Matrigel-coated wells, covered with additional 250 μl Matrigel, and allowed to gel for 30-45 min at 37° C. (see FIG. 6). The vessels were cultured for 24 hours in 4 ml of EGM-2 to allow the tissue to adapt to its new environment. After 24 hours incubation, the rings were treated either with 0.1% DMSO as control, or different concentrations of compounds (thalidomide or CC4047). Culture medium was changed twice per week for total of three weeks.
The effects of compounds on cultured vessel rings were compared with the effect of DMSO on vessel rings. The results were analyzed using Image-Pro® Plus software (MediaCybernetics, Inc. Carlsbad, Calif.).
These experiments were done in duplicates and the results are the average of two rings in same experiment. A different concentration of Fumagillin is used as positive control in this experiment.

O=C1CCC(N2C(=O)c3ccccc3C2=O)C(=O)N1 (centres unmarked) [Thalomid, thalidomide, reference compound]
CD34+ ([1]; 10 μg/mL): +/− (<20% staining) | CD45+ ([1]; 10 μg/mL): + (20-50% staining) | GFAP ([1]; 10 μg/mL): − | Nestin ([1]; 10 μg/mL): + (20-50% staining) | SMC-specific Myosin HC ([1]; 10 μg/mL): − | CD34+ ([1]; 100 μg/mL): − | CD45+ ([1]; 100 μg/mL): + (20-50% staining) | GFAP ([1]; 100 μg/mL): + (20-50% staining) | Nestin ([1]; 100 μg/mL): + (20-50% staining) | SMC-specific Myosin HC ([1]; 100 μg/mL): − | numbers of cells expressing CD34, CD45 and smooth muscle cell (SMC)-specific myosin heavy chain ([1]; summary of Table 2): decreased | numbers of cells expressing nestin and glial fibrillary acidic protein (GFAP) ([1]; summary of Table 2): increased | Branching/Bifurcation (+/−) ([2]; 1 μg/ml): − | Total Vessel Area/Field (% Coverage) ([2]; 1 μg/ml): 24.1 +/− 4.4 % Coverage | Branching/Bifurcation (+/−) ([2]; 10 μg/ml): − | Total Vessel Area/Field (% Coverage) ([2]; 10 μg/ml): 14.8 +/− 7.2 % Coverage | branching and/or bifurcation exhibited by the cells ([2]; summary of Table 4): decreases the branching and/or bifurcation exhibited by the cells | total vessel area/field covered by the cells ([2]; summary of Table 4): decrease in the total vessel area/field covered by the cells | cell phenotype (branching / non-branching) ([3]; placental conditioned media + DMSO (FIG. 3)): More cells exhibit a branching (e.g., neuronal) phenotype than in the control | number of cells seen ([3]; placental conditioned media + ECGF 200 μg/ml + DMSO 1 μg/ml + 1 μg/ml (FIG. 2)): Fewer cells are seen than in the control | number of cells seen ([3]; placental conditioned media + ECGF 200 μg/ml + DMSO 1 μg/ml + 10 μg/ml (FIG. 2)): Fewer cells are seen than in the control (A) or in (B) | cell migration from the explant and outgrowth ([3]; placental conditioned media + EGCF 200 μg/ml + 10 μg/ml (FIG. 1D)): cells migrated a shorter distance from the explant and they exhibited less dense outgrowth than in the positive control | cell migration from the explant ([3]; placental conditioned media + EGCF 200 μg/ml + 100 μg/ml (FIG. 1C)): cells migrated a shorter distance from the explant than in the positive control | CD34/TNC ([4]; 10 μg/ml): 0.64 | CD45/TNC ([4]; 10 μg/ml): 3.87 | CD105/TNC ([4]; 10 μg/ml): 6.8 | CD34/TNC ([4]; 100 μg/ml): 0.38 | CD45/TNC ([4]; 100 μg/ml): 4.21 | CD105/TNC ([4]; 100 μg/ml): 7.0 | numbers of cells expressing CD34, CD45 and CD 105 ([4]; summary of Table 3): decrease | Microvessel Growth (% Inhibition) ([5]; 0..1 μM): 40 % Inhibition | Microvessel Growth (% Inhibition) ([5]; 1 μM): 81.4 % Inhibition | Microvessel Growth (% Inhibition) ([5]; 10 μM): 100 % Inhibition | formation of microvessel outgrowth ([5]; compared with DMSO treated samples): inhibited the formation of microvessel outgrowth in a dose dependent manner | need of microsomes for activity ([5]; human ring assay, compared with rat ring results): no need for either human or rabbit microsome
